Experimental data: US20240336642A1 (The General Hospital Corporation, priority 2021, published 2024)

How the values were obtained:
[1] = target: h12/15-LOX (Homo sapiens (Human), UniProt P16050); assay: 12/15-LOX enzyme inhibition IC50 assay (Examples 1 and 2); format: biochemical
Experimental: Enzyme was then added to the cuvettes. […] The % inhibition for each test compound concentration were calculated as follows: […]

[2] = Aqueous solubility of exemplified compounds (Example 3); format: physicochemical; details: aqueous solubility
[3] = Metabolic stability of exemplified compounds (Example 4); format: in vitro ADME
[4] = Solubility in formulation vehicles (Solutol HS-15/PEG400, Captisol); format: physicochemical; details: 10% Solutol/90% PEG400
Experimental: Combinations of Solutol HS-15 (also known as Kolliphor HS-15) with PEG400 provided a good vehicle to solubilize the tested compounds. Specifically, 10% Solutol/90% PEG400 was used to prepare 20 mg/ml solutions of compound 1, compound 44, and compound 32. 10% Solutol/15% H2O/[…] led to 10 mg/ml solutions of the tested compounds.
20 mg/ml were obtained in 20% Captisol, allowing for intravenous delivery in the mouse stroke model.

[5] = target: Human 12/15-LOX E. coli (Homo sapiens (Human), UniProt P16050); assay: Human 12/15-LOX E. coli IC50; format: biochemical
[6] = target: Mouse 12/15-LOX E. coli (Mus musculus (Mouse), UniProt P39654); assay: Mouse 12/15-LOX E. coli IC50; format: biochemical
[7] = target: Human 12/15-LOX HEK (Homo sapiens (Human), UniProt P16050); assay: Human 12/15-LOX HEK EC50; format: cell-based
[8] = test system: Mouse HT22; assay: Mouse HT22 EC50; format: cell-based; details: HT-22
[9] = test system: Rat Primary Neuron; assay: Rat Primary Neuron EC50; format: cell-based
[10] = target: 15-LOX2 (Homo sapiens (Human), UniProt O15296); assay: Selectivity versus 15-LOX2; format: biochemical
[11] = target: 5-LOX (Homo sapiens (Human), UniProt P09917); assay: Selectivity versus 5-LOX; format: biochemical
[12] = test system: COX-1; assay: Selectivity versus COX-1; format: biochemical
[13] = target: COX-2 (Homo sapiens (Human), UniProt P35354); assay: Selectivity versus COX-2; format: biochemical
[14] = test system: experimental stroke model in mice (MCAO); assay: Mouse stroke model, filament middle cerebral artery occlusion (MCAO), infarct size; format: in vivo
Experimental: Studies were carried out in experimental stroke model in mice, using the filament model of middle cerebral artery occlusion (MCAO). For intraperitoneal delivery, compounds were dissolved in DMSO. A number of exemplified compounds were able to reduce infarct size when given at a dosage of 40 mg/kg.
40 mg/kg cmpd. 1 were given i.p. at time of reperfusion. Infarct size was measured at 24 hours after 60 minutes MCAO.
MCAO (Experimental Middle Cerebral Artery Ischemia and Functional Recovery) experiment: 40 mg/kg of compound delivered intraperitoneally 2 h post reperfusion, 60 minutes MCAO, sacrifice at 24 h, infarct size determined by TTC staining.

[15] = test system: experimental stroke model in mice (MCAO); assay: Long-term outcome after MCAO: Garcia score; format: in vivo, mouse; details: 40 mg/kg i.v. 2 hours post reperfusion
Experimental: (§1) Long-term outcome experiment: 40 mg/kg cmpd. 1 delivered I.V. 2 hours post reperfusion, same as short term, compared to vehicle (10% solutol/90% PEG400). 45 mice operated, and 27 survived, mice were sacrificed on day 30.

[16] = test system: experimental stroke model in mice (MCAO); assay: Long-term outcome after MCAO: corner test; format: in vivo, mouse; details: 40 mg/kg i.v. 2 hours post reperfusion
Experimental: as §1

[17] = test system: experimental stroke model in mice (MCAO); assay: Long-term outcome after MCAO: foot fault test; format: in vivo, mouse; details: 40 mg/kg i.v. 2 hours post reperfusion
Experimental: as §1

[18] = test system: experimental stroke model in mice (MCAO); assay: Long-term outcome after MCAO: adhesive (tape) removal test; format: in vivo, mouse; details: 40 mg/kg i.v. 2 hours post reperfusion
Experimental: as §1

[19] = test system: experimental stroke model in mice (MCAO); assay: Long-term outcome after MCAO: Y maze; format: in vivo, mouse; details: 40 mg/kg i.v. 2 hours post reperfusion, versus vehicle
Experimental: as §1

h12/15-LOX, sequence (P16050 whole entry): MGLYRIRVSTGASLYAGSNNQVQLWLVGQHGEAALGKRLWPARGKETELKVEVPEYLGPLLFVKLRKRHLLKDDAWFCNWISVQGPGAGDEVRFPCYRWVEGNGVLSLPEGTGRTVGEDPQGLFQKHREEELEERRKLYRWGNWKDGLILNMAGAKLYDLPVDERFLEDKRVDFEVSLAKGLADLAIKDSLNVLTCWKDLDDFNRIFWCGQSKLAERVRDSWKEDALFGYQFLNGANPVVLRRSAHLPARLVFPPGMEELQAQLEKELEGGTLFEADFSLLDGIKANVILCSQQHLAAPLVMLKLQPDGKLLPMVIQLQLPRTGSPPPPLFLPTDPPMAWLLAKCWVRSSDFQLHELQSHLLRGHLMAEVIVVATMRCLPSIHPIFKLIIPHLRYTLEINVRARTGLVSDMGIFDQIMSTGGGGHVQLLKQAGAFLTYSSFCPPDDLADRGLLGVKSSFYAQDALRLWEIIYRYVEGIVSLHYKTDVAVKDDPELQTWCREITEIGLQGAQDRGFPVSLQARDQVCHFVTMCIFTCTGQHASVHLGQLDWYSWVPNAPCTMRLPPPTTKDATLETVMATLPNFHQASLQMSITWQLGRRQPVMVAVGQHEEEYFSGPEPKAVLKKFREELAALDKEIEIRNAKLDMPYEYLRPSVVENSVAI
Human 12/15-LOX E. coli, sequence (P16050 whole entry): as above
Mouse 12/15-LOX E. coli, sequence (P39654 whole entry): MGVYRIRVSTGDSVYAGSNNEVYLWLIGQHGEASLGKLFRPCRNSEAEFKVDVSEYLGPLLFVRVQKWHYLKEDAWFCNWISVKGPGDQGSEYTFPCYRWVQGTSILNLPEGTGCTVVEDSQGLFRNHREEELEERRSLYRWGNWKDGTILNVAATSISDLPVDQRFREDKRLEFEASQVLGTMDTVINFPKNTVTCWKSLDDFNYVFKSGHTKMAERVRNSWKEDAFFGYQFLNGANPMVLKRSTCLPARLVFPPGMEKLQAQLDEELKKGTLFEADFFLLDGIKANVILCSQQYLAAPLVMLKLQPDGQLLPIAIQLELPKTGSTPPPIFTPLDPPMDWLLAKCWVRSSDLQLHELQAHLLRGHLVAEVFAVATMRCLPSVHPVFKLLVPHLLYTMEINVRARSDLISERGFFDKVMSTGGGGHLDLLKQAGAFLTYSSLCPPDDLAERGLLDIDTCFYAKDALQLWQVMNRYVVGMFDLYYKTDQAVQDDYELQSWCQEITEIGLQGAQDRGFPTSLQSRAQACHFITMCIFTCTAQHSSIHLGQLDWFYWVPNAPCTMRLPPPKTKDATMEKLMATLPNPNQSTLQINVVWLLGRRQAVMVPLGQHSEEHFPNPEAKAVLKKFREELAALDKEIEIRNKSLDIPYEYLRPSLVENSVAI
5-LOX, sequence (P09917 whole entry): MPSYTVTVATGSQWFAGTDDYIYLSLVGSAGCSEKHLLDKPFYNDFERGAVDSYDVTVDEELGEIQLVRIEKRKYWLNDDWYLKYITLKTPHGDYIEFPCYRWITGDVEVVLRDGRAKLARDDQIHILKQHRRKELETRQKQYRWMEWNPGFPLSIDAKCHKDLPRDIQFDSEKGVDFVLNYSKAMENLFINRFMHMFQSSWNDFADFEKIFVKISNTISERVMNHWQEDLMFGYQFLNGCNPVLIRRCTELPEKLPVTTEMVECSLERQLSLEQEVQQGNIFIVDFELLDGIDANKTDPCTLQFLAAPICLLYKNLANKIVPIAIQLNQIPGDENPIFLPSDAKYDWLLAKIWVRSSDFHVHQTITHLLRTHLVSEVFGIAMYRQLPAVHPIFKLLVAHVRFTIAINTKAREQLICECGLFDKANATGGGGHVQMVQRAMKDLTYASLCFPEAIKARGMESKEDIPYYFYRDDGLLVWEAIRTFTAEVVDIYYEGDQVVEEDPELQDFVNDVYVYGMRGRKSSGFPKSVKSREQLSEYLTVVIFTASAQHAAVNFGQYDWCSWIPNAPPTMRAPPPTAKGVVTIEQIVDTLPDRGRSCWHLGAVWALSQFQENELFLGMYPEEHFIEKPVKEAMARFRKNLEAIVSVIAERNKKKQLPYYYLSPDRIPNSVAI
Human 12/15-LOX HEK, sequence (P16050 whole entry): as the sequence (P16050 whole entry) above
15-LOX2, sequence (O15296 whole entry): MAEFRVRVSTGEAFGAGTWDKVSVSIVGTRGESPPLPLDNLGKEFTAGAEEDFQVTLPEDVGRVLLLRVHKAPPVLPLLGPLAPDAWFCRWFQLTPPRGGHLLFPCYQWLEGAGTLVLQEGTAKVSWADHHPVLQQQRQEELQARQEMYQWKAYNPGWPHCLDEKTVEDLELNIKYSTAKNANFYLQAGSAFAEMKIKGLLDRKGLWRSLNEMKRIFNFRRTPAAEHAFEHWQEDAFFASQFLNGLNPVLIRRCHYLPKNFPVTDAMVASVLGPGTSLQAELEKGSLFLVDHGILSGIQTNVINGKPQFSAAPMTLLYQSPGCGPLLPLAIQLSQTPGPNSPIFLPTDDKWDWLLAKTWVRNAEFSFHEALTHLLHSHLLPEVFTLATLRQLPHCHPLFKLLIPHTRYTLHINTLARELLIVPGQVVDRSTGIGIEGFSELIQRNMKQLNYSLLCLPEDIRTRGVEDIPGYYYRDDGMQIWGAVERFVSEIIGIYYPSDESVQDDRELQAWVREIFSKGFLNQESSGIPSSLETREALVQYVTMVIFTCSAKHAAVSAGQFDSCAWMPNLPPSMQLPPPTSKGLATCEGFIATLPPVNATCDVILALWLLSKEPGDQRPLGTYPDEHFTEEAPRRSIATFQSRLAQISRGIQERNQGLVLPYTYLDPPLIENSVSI
COX-2, sequence (P35354 18-604): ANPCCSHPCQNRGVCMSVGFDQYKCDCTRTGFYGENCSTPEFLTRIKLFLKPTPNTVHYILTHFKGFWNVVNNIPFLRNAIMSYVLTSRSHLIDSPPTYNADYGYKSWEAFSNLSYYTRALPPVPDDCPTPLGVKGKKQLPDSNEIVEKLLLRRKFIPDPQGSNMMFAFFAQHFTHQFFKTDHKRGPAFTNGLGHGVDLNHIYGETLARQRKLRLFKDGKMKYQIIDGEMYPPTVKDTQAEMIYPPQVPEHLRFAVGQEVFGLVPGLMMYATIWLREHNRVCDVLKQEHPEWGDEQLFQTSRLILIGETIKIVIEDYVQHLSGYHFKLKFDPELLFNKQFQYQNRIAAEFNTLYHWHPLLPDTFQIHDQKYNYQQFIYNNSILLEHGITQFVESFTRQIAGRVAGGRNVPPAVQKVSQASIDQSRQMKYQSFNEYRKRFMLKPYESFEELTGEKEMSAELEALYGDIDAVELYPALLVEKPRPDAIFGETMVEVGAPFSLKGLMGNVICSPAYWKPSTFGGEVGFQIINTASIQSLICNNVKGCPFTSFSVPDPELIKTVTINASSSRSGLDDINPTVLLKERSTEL

## CNc1oc(-c2cc(Cl)cc(Cl)c2Cl)nc1C#N [Compound 1, 5-(methylamino)-2-(2,3,5-trichlorophenyl) oxazole-4-carbonitrile]
[1]
  IC50: 120 nM
[1]; h12/15-LOX, read-out: Max % inhibition
  Emax: 94%
[2]
  Sol: + (“+” < 10 μM)
[3]; Human liver microsomes
  Extr (EH): ** (“**” 50-100%)
  microsomal CLint: 20 to 100 µL/min/mg
[3]; Mouse liver microsomes
  Extr (EH): ** (“**” 50-100%)
  microsomal CLint: 20 to 100 µL/min/mg
[3]; Rat liver microsomes
  Extr (EH): * (“*” <50%)
  microsomal CLint: < 20 µL/min/mg
[4]
  solution concentration achieved: 20 mg/mL
[5]
  Human 12/15-LOX E. coli % max: 88%
  IC50: 110 nM
[6]
  IC50: 180 nM
  Mouse 12/15-LOX E. coli % max: 82%
[7]
  EC50: 920 nM
[8]
  EC50: 5000 nM
[9]
  EC50: 9500 nM
[10]
  selectivity over 15-LOX2: > 400 fold
[11]
  selectivity over 5-LOX: > 400 fold
[12]
  selectivity over COX-1: > 400 fold
[13]
  selectivity over COX-2: > 400 fold
[14]; 20 mg/kg i.v. 2 hours post reperfusion
  infarct size reduction: 25.8%
[14]; 40 mg/kg i.v. in 10% Solutol/90% PEG400, 2 h after reperfusion, 24 h
  infarct size reduction: 34.1%
[14]; female mice, 40 mg/kg i.p. at time of reperfusion, 24 h after 60 minutes MCAO
  infarct size reduction: 37.2%
[14]; male mice, 40 mg/kg i.p. at time of reperfusion, 24 h after 60 minutes MCAO
  infarct size reduction: 33.4%
[15]; Day 3
  Garcia score, improvement compared to vehicle treatment: 23.8%
[15]; Week 4
  Garcia score, improvement compared to vehicle treatment: 68.5%
[16]; Week 1
  Corner test, improvement compared to vehicle treatment: 68.7%
[16]; Week 4
  Corner test, improvement compared to vehicle treatment: 75.4%
[17]; Week 1
  Foot fault test, improvement compared to vehicle treatment: 61.7%
[17]; Week 4
  Foot fault test, improvement compared to vehicle treatment: 77.0%
[18]; Week 1
  Adhesive (tape) removal test, improvement compared to vehicle treatment: 65.6%
[18]; Week 4
  Adhesive (tape) removal test, improvement compared to vehicle treatment: 93.3%
[19]
  Y maze % alternation: no significant differences
  Y maze entry number: no difference between treatment groups
